This is an account of results in ChEMBL document CHEMBL3400121, “Design and synthesis of novel 1,2,3-triazole-pyrimidine-urea hybrids as potential anticancer agents” (Bioorg Med Chem Lett, 2015).

Assay [1] can be described thus: Anticancer activity against human EC109 cells assessed as inhibition of proliferation after 72 hrs by MTT assay. The class given is functional, cell-based. Conditions: ECa-109, 72 h.
Assay [2] concerns MCF7. Kind of assay: Anticancer activity against human MCF7 cells assessed as inhibition of proliferation after 72 hrs by MTT assay. The class given is functional, cell-based. As to conditions: MCF7, 72 h. In general terms: Tetrazolium dyes change colour on reduction, which living cells bring about.
The subject of assay [3] is MGC-803. Briefly: Anticancer activity against human MGC803 cells assessed as inhibition of proliferation after 72 hrs by MTT assay. Type of assay: functional, cell-based. As to conditions: MGC-803, 72 h.
A short description of assay [4]: Cytotoxicity against human GES-1 cells assessed as inhibition of proliferation after 72 hrs by MTT assay. The class given is cell-based. Conditions: GES1, 72 h.
Assay [5] in a line: Anticancer activity against mouse B16F10 cells assessed as inhibition of proliferation after 72 hrs by MTT assay. The class given is functional, cell-based. As to conditions: B16-F10, 72 h.

Molecules are shown by their SMILES.

In the case of `Cc1ccc(Nc2nc(SCc3cn(CC(=O)NC(=O)Nc4ccccn4)nn3)nc(-c3ccc(C(C)C)cc3)c2C#N)cc1`, the IC50 is 6.7 µM in assay [1]; greater than 64 µM in assay [2]; 3.36 µM in assay [3]; greater than 64 µM in assay [4]; 3.06 µM in assay [5].

As for `COc1ccc(Nc2nc(SCc3cn(CC(=O)NC(=O)Nc4ccccn4)nn3)nc(-c3ccc(C(C)C)cc3)c2C#N)cc1`, the IC50 in assay [1] was 5.42 µM; in assay [2] it was greater than 64 µM; in assay [3], greater than 64 µM; in assay [5] it was 0.36 µM.

As for `Cc1ccc(Nc2nc(SCc3cn(CC(=O)NC(=O)Nc4ccccn4)nn3)nc(-c3ccc(C)cc3)c2C#N)cc1`, the IC50 in assay [1] is greater than 64 µM; in assay [2], 39.6 µM; in assay [3] it was 9.89 µM; in assay [5] it was 1.01 µM.

For the compound `COc1ccccc1Nc1nc(SCc2cn(CC(=O)NC(=O)Nc3ccccn3)nn2)nc(-c2ccc(C(C)C)cc2)c1C#N`, the IC50 in assay [1] was 8.96 µM; in assay [2], 19.3 µM; in assay [3], greater than 64 µM; in assay [5] it was 34.6 µM.

Turning to `CC(C)c1ccc(-c2nc(SCc3cn(CC(=O)NC(=O)Nc4ccccn4)nn3)nc(Nc3ccccc3F)c2C#N)cc1`, the IC50 was 15.5 µM in assay [1], greater than 64 µM in assay [2], greater than 64 µM in assay [3] and 8.38 µM in assay [5].

Regarding `CC(C)c1ccc(-c2nc(SCc3cn(CC(=O)NC(=O)Nc4ccccn4)nn3)nc(Nc3ccc(F)cc3)c2C#N)cc1`, the IC50 in assay [1] is greater than 64 µM; in assay [2] it was greater than 64 µM; in assay [3], 17.5 µM; in assay [5] it was 7.25 µM.

As to `COc1ccccc1Nc1nc(SCc2cn(CC(=O)NC(=O)Nc3ccccn3)nn2)nc(-c2ccc(C)cc2)c1C#N`, the IC50 in assay [1] was 7.85 µM; in assay [2], 19.7 µM; in assay [3], 7.96 µM; in assay [4], greater than 64 µM; in assay [5], 8.58 µM.

As for `CC(C)c1ccc(-c2nc(SCc3cn(CC(=O)NC(=O)Nc4ccccn4)nn3)nc(Nc3ccccc3O)c2C#N)cc1`, the IC50 in assay [1] was 7.38 µM; in assay [2], greater than 64 µM; in assay [3], 16.4 µM; in assay [5], 16.1 µM.

`Cc1ccc(-c2nc(SCc3cn(CC(=O)NC(=O)Nc4ccccn4)nn3)nc(Nc3ccc(C(C)C)cc3)c2C#N)cc1`: the IC50 in assay [1] was 7.45 µM; in assay [2], greater than 64 µM; in assay [3] it was 19.3 µM; in assay [4], greater than 64 µM; in assay [5] it was 0.035 µM.

As to `CC(C)c1ccc(-c2nc(SCc3cn(CC(=O)NC(=O)Nc4ccccn4)nn3)nc(Nc3ccc(Cl)cc3)c2C#N)cc1`, the half-maximal inhibitory concentration (IC50) in assay [1] is 11.2 µM; in assay [2] it was greater than 64 µM; in assay [3], greater than 64 µM; in assay [5], 0.86 µM.

As to `O=c1[nH]cc(F)c(=O)[nH]1` [FLUOROURACIL], the IC50 in assay [1] was 11.6 µM; in assay [2], 9.12 µM; in assay [3], 8.43 µM; in assay [5], 1.43 µM.

For the compound `Cc1ccc(Nc2nc(SCc3cn(CC(=O)NC(=O)Nc4ccccn4)nn3)nc(-c3ccccc3)c2C#N)cc1`, the IC50 is 24.6 µM in assay [1], greater than 64 µM in assay [2], 7.87 µM in assay [3] and 3.3 µM in assay [5].

As for `CC(C)c1ccc(-c2nc(SCc3cn(CC(=O)NC(=O)Nc4ccccn4)nn3)nc(Nc3cccc(Cl)c3)c2C#N)cc1`, the IC50 in assay [1] is 13.3 µM; in assay [2], 18 µM; in assay [3], greater than 64 µM; in assay [5] it was 1.13 µM.

On to `Cc1ccc(-c2nc(SCc3cn(CC(=O)NC(=O)Nc4ccccn4)nn3)nc(Nc3cccc(Cl)c3)c2C#N)cc1`, for which the half-inhibitory concentration (IC50) in assay [1] came out at 25.6 µM; in assay [2], 14.9 µM; in assay [3], 7.89 µM; in assay [5], 7.58 µM.

For `N#Cc1c(Nc2cccc(C(F)(F)F)c2)nc(SCc2cn(CC(=O)NC(=O)Nc3ccccn3)nn2)nc1-c1ccc(Br)cc1`, the half-inhibitory concentration (IC50) in assay [1] was determined as 2.96 µM; in assay [2] it was 3.11 µM; in assay [3], 3.6 µM; in assay [4], 38.7 µM; in assay [5] it was 4.55 µM.

As for `CC(C)c1ccc(-c2nc(SCc3cn(CC(=O)NC(=O)Nc4ccccn4)nn3)nc(Nc3cccc(C(F)(F)F)c3)c2C#N)cc1`, the IC50 in assay [1] was 24.2 µM; in assay [2] it was 8.62 µM; in assay [3], greater than 64 µM; in assay [5] it was 1.7 µM.

With `COc1cc(-c2nc(SCc3cn(CC(=O)NC(=O)Nc4ccccn4)nn3)nc(Nc3ccc(Cl)cc3)c2C#N)cc(OC)c1OC`, the concentration for half-maximal inhibition (IC50) in assay [1] was greater than 64 µM; in assay [2] it was 45.1 µM; in assay [3], 17.5 µM; in assay [5], 1.11 µM.

Consider `Cc1ccc(Nc2nc(SCc3cn(CC(=O)NC(=O)Nc4ccccn4)nn3)nc(-c3ccc(Br)cc3)c2C#N)cc1`, for which the IC50 in assay [1] stood at 7.92 µM; in assay [2], 14.4 µM; in assay [3], 13.9 µM; in assay [5], 8.16 µM.

For the compound `Cc1ccc(Nc2nc(SCc3cn(CC(=O)NC(=O)Nc4ccccn4)nn3)nc(-c3ccc(Cl)cc3)c2C#N)cc1`, the IC50 was determined as 13.1 µM in assay [1], 27 µM in assay [2], 24 µM in assay [3] and 1.32 µM in assay [5].

In the case of `COc1cc(-c2nc(SCc3cn(CC(=O)NC(=O)Nc4ccccn4)nn3)nc(Nc3cccc(Cl)c3)c2C#N)cc(OC)c1OC`, the IC50 was greater than 64 µM in assay [1], 24 µM in assay [2], 15.4 µM in assay [3] and 1.42 µM in assay [5].

In the case of `CC(C)c1ccc(-c2nc(SCc3cn(CC(=O)NC(=O)Nc4ccccn4)nn3)nc(Nc3ccccc3Cl)c2C#N)cc1`, the IC50 worked out at 23.4 µM in assay [1], 43.7 µM in assay [2], 19.7 µM in assay [3] and 6.79 µM in assay [5].

With `CC(C)c1ccc(-c2nc(SCc3cn(CC(=O)NC(=O)Nc4ccccn4)nn3)nc(Nc3ccccc3)c2C#N)cc1`, the IC50 in assay [1] was greater than 64 µM; in assay [2], greater than 64 µM; in assay [3] it was 15.8 µM; in assay [5], 14.3 µM.

Turning to `CC(C)c1ccc(-c2nc(SCc3cn(CC(=O)NC(=O)Nc4ccccn4)nn3)nc(Nc3cccc([N+](=O)[O-])c3)c2C#N)cc1`, the IC50 in assay [1] is 31.3 µM; in assay [2], 25.9 µM; in assay [3], greater than 64 µM; in assay [5], 26.4 µM.

For `Cc1cccc(Nc2nc(SCc3cn(CC(=O)NC(=O)Nc4ccccn4)nn3)nc(-c3ccc(C(C)C)cc3)c2C#N)c1`, the IC50 was 7.32 µM in assay [1], greater than 64 µM in assay [2], 25.3 µM in assay [3] and 1.65 µM in assay [5].

`CC(C)c1ccc(Nc2nc(SCc3cn(CC(=O)NC(=O)Nc4ccccn4)nn3)nc(-c3ccc(C(C)C)cc3)c2C#N)cc1`: the IC50 in assay [1] is 2.49 µM; in assay [2], 28.6 µM; in assay [3], 15.8 µM; in assay [5] it was 4.38 µM.

As for `CC(C)c1ccc(Nc2nc(SCc3cn(CC(=O)NC(=O)Nc4ccccn4)nn3)nc(-c3ccc(Cl)cc3)c2C#N)cc1`, the IC50 in assay [1] is greater than 64 µM; in assay [2], 39.9 µM; in assay [3], 16.9 µM; in assay [5], 1.59 µM.

For the compound `COc1ccc(Nc2nc(SCc3cn(CC(=O)NC(=O)Nc4ccccn4)nn3)nc(-c3ccc(C)cc3)c2C#N)cc1`, the IC50 came to 5.87 µM in assay [1]; 23.4 µM in assay [2]; 1.7 µM in assay [3]; 35.7 µM in assay [4]; 8.75 µM in assay [5].

With `Cc1ccc(-c2nc(SCc3cn(CC(=O)NC(=O)Nc4ccccn4)nn3)nc(Nc3cccc(C(F)(F)F)c3)c2C#N)cc1`, the IC50 in assay [1] was found to be 32.3 µM; in assay [2], 6.12 µM; in assay [3], 7.58 µM; in assay [5], 9.58 µM.

Regarding `COc1cc(-c2nc(SCc3cn(CC(=O)NC(=O)Nc4ccccn4)nn3)nc(Nc3cccc(C(F)(F)F)c3)c2C#N)cc(OC)c1OC`, the IC50 in assay [1] is greater than 64 µM; in assay [2] it was 8.14 µM; in assay [3], 8.21 µM; in assay [4] it was greater than 64 µM; in assay [5], 24.4 µM.

On to `Cc1ccccc1Nc1nc(SCc2cn(CC(=O)NC(=O)Nc3ccccn3)nn2)nc(-c2ccc(C(C)C)cc2)c1C#N`, for which the IC50 was 7.23 µM in assay [1], greater than 64 µM in assay [2], 19 µM in assay [3] and 18.6 µM in assay [5].

`CC(C)c1ccc(Nc2nc(SCc3cn(CC(=O)NC(=O)Nc4ccccn4)nn3)nc(-c3ccc(Br)cc3)c2C#N)cc1`: the IC50 in assay [1] is greater than 64 µM; in assay [2], 30.6 µM; in assay [3], 15.6 µM; in assay [4], greater than 64 µM; in assay [5] it was 0.042 µM.

As to `COc1cc(-c2nc(SCc3cn(CC(=O)NC(=O)Nc4ccccn4)nn3)nc(Nc3ccc(C(C)C)cc3)c2C#N)cc(OC)c1OC`, the IC50 in assay [1] was greater than 64 µM; in assay [2], 30.9 µM; in assay [3], 35.5 µM; in assay [5], 1.21 µM.

In general, IC50 refers to the concentration at which inhibition is half-maximal.
